We go through 24 compounds from patent US20260374756A1, “HETEROCYCLIC COMPOUNDS AS INHIBITORS OF MONOACYLGLYCEROL LIPASE (MAGL)” (Hoffmann-La Roche Inc., priority 2022, published 2026).

The structures appear in SMILES notation.

This test addresses T1, hMAGL (Homo sapiens, UniProt Q99685).
T1 sequence (Q99685 1-303): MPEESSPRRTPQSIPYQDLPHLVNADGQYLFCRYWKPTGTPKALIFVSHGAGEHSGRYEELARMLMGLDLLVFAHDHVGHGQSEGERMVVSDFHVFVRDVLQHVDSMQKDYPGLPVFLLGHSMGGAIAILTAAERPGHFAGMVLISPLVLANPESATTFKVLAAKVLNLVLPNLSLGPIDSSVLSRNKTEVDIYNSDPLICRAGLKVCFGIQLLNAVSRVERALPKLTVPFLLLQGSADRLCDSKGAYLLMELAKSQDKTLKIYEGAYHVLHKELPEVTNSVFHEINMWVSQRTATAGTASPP
The test can be described thus: 2-AG assay: MAGL inhibition, hydrolysis of 2-arachidonoylglycerol to arachidonic acid followed by mass spectrometry. In kind it is biochemical. The protocol: Compounds of formula (I) were profiled for MAGL inhibitory activity by determining the enzymatic activity by following the hydrolysis of the natural substrate 2-arachidonoylglycerol (2-AG) resulting in arachidonic acid, which can be followed by mass spectrometry. This assay is hereinafter abbreviated “2-AG assay”. The 2-AG assay was carried out in 384 well polypropylene assay plates. […] Compound dilutions were added to MAGL protein in assay buffer (50 mM TRIS, 1 mM EDTA, 0.01% (v/v) Tween-20, 2.5% (v/v) DMSO). After shaking, the plate was incubated for 15 min at RT. To start the reaction, 2-arachidonoylglycerol in assay buffer was added. The final concentrations in the assay was […] for MAGL protein and 8 μM 2-arachidonoylglyerol. After shaking and 30 min incubation at RT, the reaction was quenched by the addition of two assay volumes of acetonitrile containing 4 μM of d8-arachidonic acid. The amount of arachidonic acid formed was traced by an online SPE system (Agilent Rapidfire) coupled to a triple quadrupole mass spectrometer. A C18 SPE cartridge (Agilent G9205A) was used in an acetonitrile/water liquid setup. […] The activity of the compounds was calculated based on the ratio of intensities [arachidonic acid/d8-arachidonic acid].
As for `CS(=O)(=O)c1cnn(CC2CC3(C2)CN(C(=O)N2CC4(CC(n5cnc(C(F)(F)F)n5)C4)C2)C3)c1` [Example 327, [6-[(4-mesylpyrazol-1-yl)methyl]-2-azaspiro[3.3]heptan-2-yl]-[6-[3-(trifluoromethyl)-1,2,4-triazol-1-yl]-2-azaspiro[3.3]heptan-2-yl]methanone], the IC50 was found to be 22.2 nM.
Then `O=C(N1CC2(CC(Cc3cn(CC(F)(F)F)nn3)C2)C1)N1CC2(CC(n3cnc(C4(O)CC4)n3)C2)C1` [Example 254, [6-[3-(1-hydroxycyclopropyl)-1,2,4-triazol-1-yl]-2-azaspiro[3.3]heptan-2-yl]-[6-[[1-(2,2,2-trifluoroethyl)triazol-4-yl]methyl]-2-azaspiro[3.3]heptan-2-yl]methanone], with 44.9 nM; and `O=C(N1CC2(CC(n3cnc(C(F)(F)F)n3)C2)C1)N1CC2(CN(Cc3cc(C(F)(F)F)on3)C2)C1` [Example 189, [6-[[5-(trifluoromethyl)isoxazol-3-yl]methyl]-2,6-diazaspiro[3.3]heptan-2-yl]-[6-[3-(trifluoromethyl)-1,2,4-triazol-1-yl]-2-azaspiro[3.3]heptan-2-yl]methanone], with 50.1 nM; and `O=C(N1CC2(CCN(Cc3cc(C(F)(F)F)sn3)CC2)C1)N1CC2(CC(n3cnc(C4CC4)n3)C2)C1` [Example 47, [6-(3-cyclopropyl-1,2,4-triazol-1-yl)-2-azaspiro[3.3]heptan-2-yl]-[7-[[5-(trifluoromethyl)isothiazol-3-yl]methyl]-2,7-diazaspiro[3.5]nonan-2-yl]methanone], with 1.86 nM.
Then `Cn1cnc(C#N)c1CN1CC2(C1)CN(C(=O)N1CC3(CC(n4cnc(C5CC5)n4)C3)C1)C2` [Example 281, 5-[[2-[6-(3-cyclopropyl-1,2,4-triazol-1-yl)-2-azaspiro[3.3]heptane-2-carbonyl]-2,6-diazaspiro[3.3]heptan-6-yl]methyl]-1-methyl-imidazole-4-carbonitrile], with 164 nM; and `Cc1nn(CC(F)(F)F)cc1CN1CC2(C1)CN(C(=O)N1CC3(CC(n4cnc(C(F)(F)F)n4)C3)C1)C2` [Example 112, [6-[[3-methyl-1-(2,2,2-trifluoroethyl)pyrazol-4-yl]methyl]-2,6-diazaspiro[3.3]heptan-2-yl]-[6-[3-(trifluoromethyl)-1,2,4-triazol-1-yl]-2-azaspiro[3.3]heptan-2-yl]methanone], with 640 nM; and `CC(C)(C)c1nnc(CN2CC3(C2)CN(C(=O)N2CC4(CC(n5cnc(C(F)(F)F)n5)C4)C2)C3)s1` [Example 208, [6-[(5-tert-butyl-1,3,4-thiadiazol-2-yl)methyl]-2,6-diazaspiro[3.3]heptan-2-yl]-[6-[3-(trifluoromethyl)-1,2,4-triazol-1-yl]-2-azaspiro[3.3]heptan-2-yl]methanone], with 3.74 nM.
The figure for `Cn1nc(CC2CC3(C2)CN(C(=O)N2CC4(CC(n5cnc(C6(O)CC6)n5)C4)C2)C3)c(C(F)(F)F)n1` [Example 137] is 2.4 nM.
With `O=C(N1CC2(CC(Cc3ncn(CC(F)(F)F)n3)C2)C1)N1CC2(CC(n3cnc(C4CC4)n3)C2)C1` [Example 339, [6-(3-cyclopropyl-1,2,4-triazol-1-yl)-2-azaspiro[3.3]heptan-2-yl]-[6-[[1-(2,2,2-trifluoroethyl)-1,2,4-triazol-3-yl]methyl]-2-azaspiro[3.3]heptan-2-yl]methanone], the IC50 was 3.7 nM.
In turn, `Cc1c(CN2CC3(C2)CN(C(=O)N2CC4(CC(n5cnc(C(F)(F)F)n5)C4)C2)C3)cnn1CC(F)(F)F` [Example 114, [6-[[5-methyl-1-(2,2,2-trifluoroethyl)pyrazol-4-yl]methyl]-2,6-diazaspiro[3.3]heptan-2-yl]-[6-[3-(trifluoromethyl)-1,2,4-triazol-1-yl]-2-azaspiro[3.3]heptan-2-yl]methanone] showed an IC50 of 311 nM.
The figure for `O=C(N1CC2(CC(n3cnc(C(F)(F)F)n3)C2)C1)N1CC2(CN(Cc3ncc(C(F)(F)F)s3)C2)C1` [Example 149] is 1.78 nM; for `O=C(N1CC2(CC(n3cnc(C(F)(F)F)n3)C2)C1)N1CC2(CN(Cc3cc(C4CCC4)[nH]n3)C2)C1` [Example 273, [6-[(5-cyclobutyl-1H-pyrazol-3-yl)methyl]-2,6-diazaspiro[3.3]heptan-2-yl]-[6-[3-(trifluoromethyl)-1,2,4-triazol-1-yl]-2-azaspiro[3.3]heptan-2-yl]methanone] it is 12 nM.
With `Cn1ncc(CC2CC3(C2)CN(C(=O)N2CC4(CC(n5cnc(C6(O)CC6)n5)C4)C2)C3)c1C(F)(F)F` [Example 1, [6-[3-(1-hydroxycyclopropyl)-1,2,4-triazol-1-yl]-2-azaspiro[3.3]heptan-2-yl]-[6-[[1-methyl-5-(trifluoromethyl)pyrazol-4-yl]methyl]-2-azaspiro[3.3]heptan-2-yl]methanone], the IC50 was found to be 0.47 nM.
Turning to `Cn1ncc(CN2CC3(C2)CN(C(=O)N2CC4(CC(n5cnc(C6CC6)n5)C4)C2)C3)c1C(F)(F)F` [Example 165, [6-(3-cyclopropyl-1,2,4-triazol-1-yl)-2-azaspiro[3.3]heptan-2-yl]-[6-[[1-methyl-5-(trifluoromethyl)pyrazol-4-yl]methyl]-2,6-diazaspiro[3.3]heptan-2-yl]methanone], the IC50 turned out to be 4.46 nM.
Turning to `O=C(N1CC2(CC(n3cnc(C4CC4)n3)C2)C1)N1CC2(CN(Cc3nc(-c4ccccc4)no3)C2)C1` [Example 245, [6-(3-cyclopropyl-1,2,4-triazol-1-yl)-2-azaspiro[3.3]heptan-2-yl]-[6-[(3-phenyl-1,2,4-oxadiazol-5-yl)methyl]-2,6-diazaspiro[3.3]heptan-2-yl]methanone], the IC50 turned out to be 1.2 nM.
Consider `O=C(N1CC2(CC(Cc3n[nH]c(C(F)(F)F)n3)C2)C1)N1CC2(CC(n3cnc(C4(O)CC4)n3)C2)C1` [Example 11, [6-[3-(1-hydroxycyclopropyl)-1,2,4-triazol-1-yl]-2-azaspiro[3.3]heptan-2-yl]-[6-[[5-(trifluoromethyl)-1H-1,2,4-triazol-3-yl]methyl]-2-azaspiro[3.3]heptan-2-yl]methanone], for which half-maximal inhibition (IC50) required 20.4 nM.
Then `O=C(N1CC2(CC(n3cnc(C4CC4)n3)C2)C1)N1CC2(CN(Cc3ccnn3C(F)(F)F)C2)C1` [Example 226, [6-(3-cyclopropyl-1,2,4-triazol-1-yl)-2-azaspiro[3.3]heptan-2-yl]-[6-[[2-(trifluoromethyl)pyrazol-3-yl]methyl]-2,6-diazaspiro[3.3]heptan-2-yl]methanone], with 34.6 nM; and `O=C(N1CC2(CC(Cc3cc(C(F)(F)F)n[nH]3)C2)C1)N1CC2(CC(n3cnc(C(F)F)n3)C2)C1` [Example 343, [6-[3-(difluoromethyl)-1,2,4-triazol-1-yl]-2-azaspiro[3.3]heptan-2-yl]-[6-[[3-(trifluoromethyl)-1H-pyrazol-5-yl]methyl]-2-azaspiro[3.3]heptan-2-yl]methanone], with 2.62 nM.
Then `O=C(N1CC2(CC(Cc3n[nH]c(C(F)(F)F)n3)C2)C1)N1CC2(CC(n3cnc(C(F)F)n3)C2)C1` [Example 320, [6-[3-(difluoromethyl)-1,2,4-triazol-1-yl]-2-azaspiro[3.3]heptan-2-yl]-[6-[[5-(trifluoromethyl)-1H-1,2,4-triazol-3-yl]methyl]-2-azaspiro[3.3]heptan-2-yl]methanone], with 52.8 nM; and `O=C(N1CC2(CC(Cc3cc(C(F)F)n[nH]3)C2)C1)N1CC2(CC(n3cnc(C(F)(F)F)n3)C2)C1` [Example 295, [6-[[3-(difluoromethyl)-1H-pyrazol-5-yl]methyl]-2-azaspiro[3.3]heptan-2-yl]-[6-[3-(trifluoromethyl)-1,2,4-triazol-1-yl]-2-azaspiro[3.3]heptan-2-yl]methanone], with 1.11 nM.
The figure for `O=C(N1CC2(CC(n3cnc(C4CC4)n3)C2)C1)N1CC2(CN(Cc3cc(C4CCC4)[nH]n3)C2)C1` [Example 274, [6-[(5-cyclobutyl-1H-pyrazol-3-yl)methyl]-2,6-diazaspiro[3.3]heptan-2-yl]-[6-(3-cyclopropyl-1,2,4-triazol-1-yl)-2-azaspiro[3.3]heptan-2-yl]methanone] is 5.29 nM.
`O=C(N1CC2(CC(Cc3nc(C(F)(F)F)c[nH]3)C2)C1)N1CC2(CC(n3cnc(C4(O)CC4)n3)C2)C1` [Example 337, [6-[3-(1-hydroxycyclopropyl)-1,2,4-triazol-1-yl]-2-azaspiro[3.3]heptan-2-yl]-[6-[[4-(trifluoromethyl)-1H-imidazol-2-yl]methyl]-2-azaspiro [3.3]heptan-2-yl]methanone] registered an IC50 of 6.12 nM.
In turn, `O=C(N1CC2(CC(n3cnc(C(F)(F)F)n3)C2)C1)N1CC2(CN(Cc3nc(C(F)(F)F)co3)C2)C1` [Example 216] came in with an IC50 of 102 nM.
`O=C(N1CC2(CC(n3cnc(C(F)(F)F)n3)C2)C1)N1CC2(CN(Cc3cc(C(F)(F)F)ns3)C2)C1` [Example 153, [6-[[3-(trifluoromethyl)isothiazol-5-yl]methyl]-2,6-diazaspiro[3.3]heptan-2-yl]-[6-[3-(trifluoromethyl)-1,2,4-triazol-1-yl]-2-azaspiro[3.3]heptan-2-yl]methanone] showed an IC50 of 15.3 nM.
